Patent US20080221116A1, “ISOXAZOLINE ALPHA 1a/1d ADRENORECEPTOR ANTAGONISTS” (priority 2006, published 2008)
Values joined by “and” are separate entries in the source; they are usually repeats but may differ in a detail not shown here. Equal entries are not always repeated. Where two headings read alike, the source gives them in different places.

Assays:
Settings in all cases: COS-7 membranes
[1] = target: T1, α1a-AR (Homo sapiens, UniProt P35348); experiment: α1-Adrenergic Receptor Binding Assay, 125I-HEAT radio-ligand binding, transfected COS-7 cell membranes, α1a subtype
T1 construct: expressed in transfected cells; host or cells: COS-7 cells (African Green monkey kidney), membranes
T1 sequence (P35348 1-466): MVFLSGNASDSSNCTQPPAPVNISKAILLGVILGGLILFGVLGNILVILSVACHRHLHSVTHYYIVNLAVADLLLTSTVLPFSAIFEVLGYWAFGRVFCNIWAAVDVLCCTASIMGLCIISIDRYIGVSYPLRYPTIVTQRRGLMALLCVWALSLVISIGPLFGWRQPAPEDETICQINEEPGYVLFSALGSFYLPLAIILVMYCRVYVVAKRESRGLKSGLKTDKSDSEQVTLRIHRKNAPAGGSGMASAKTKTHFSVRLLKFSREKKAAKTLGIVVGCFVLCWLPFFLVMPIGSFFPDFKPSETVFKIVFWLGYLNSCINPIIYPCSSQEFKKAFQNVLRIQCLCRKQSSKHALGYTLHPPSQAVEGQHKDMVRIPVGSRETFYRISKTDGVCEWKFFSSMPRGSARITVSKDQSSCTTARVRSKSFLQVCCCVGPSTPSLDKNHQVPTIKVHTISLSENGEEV
Experimental: (§1) Membranes were prepared from COS-7 cells (African Green monkey kidney SV40-transformed cells) that had been transfected with one of the three α1-AR subtypes by the following method: COS cells from ten 100 mm tissue culture plates were scraped into a 5 ml volume of TE (a mixture of 50 mM tris(hydroxymethyl)aminomethane hydrochloride (Tris-HCl) and 5 mM ethylenediaminetetraacetic acid (EDTA) at pH 7.4). The cell suspension was disrupted with a Brinkman Polytron (at a setting of 8) for 10 sec. The disrupted cells were centrifuged at 1000×g for 10 min at 4° C. Supernatants were centrifuged at 34,500×g for 20 min at 4° C. The membrane pellets were suspended in a 2 ml volume of TNE (a mixture of 50 mM Tris-HCl, 5 mM EDTA and 150 mM NaCl at pH7.4). An aliquot of the membrane suspension was stored at −70° C. until use. The protein concentration was determined using a BioRad “DC” protein assay kit following membrane solubilization with Triton X-100.
(§2) Triplicate determinations of radio-ligand binding in the presence of increasing concentrations of testing compound were made. The reagents were added to 96-well polypropylene plate wells. Each assay well contained 140 μL TNE, 25 μL 125′-2-(β-4-hydroxyphenyl)ethylaminomethyltetralone (^125I-HEAT) (specific activity 2200 Ci/mmol, Dupont-New England Nuclear, […] final), 10 μL testing compound dissolved in dimethyl sulfoxide (DMSO) ([…] to 10 μM in half-log increments, final), and 25 μL appropriate α1-AR membrane subtype suspension in TNE (0.5 ng/μL for the α1a and α1b subtypes and 13 ng/μL for the α1d subtype). The plate was incubated at rt for 1 hr. The contents of the wells were filtered through a glass filter (type C) (GF/C) membrane Unifilter plate (Packard Instruments) using the Packard Filtermate cell harvester. The filter plates were dried in a vacuum oven for 30 min at 40° C. 25 μL Microscint 20 liquid scintillation fluid (Packard Instuments) was added to each well. The radioactive content was analyzed in the TopCount microplate scintillation counter (Packard Instruments).
(§3) The Ki values (in nM) shown in Table 1 were determined using GraphPad Prism software.

[2] = target: T2, α1b-AR (Homo sapiens, UniProt P35368); experiment: α1-Adrenergic Receptor Binding Assay, 125I-HEAT radio-ligand binding, transfected COS-7 cell membranes, α1b subtype
T2 construct: expressed in transfected cells; host or cells: COS-7 cells (African Green monkey kidney), membranes
T2 sequence (P35368 1-520): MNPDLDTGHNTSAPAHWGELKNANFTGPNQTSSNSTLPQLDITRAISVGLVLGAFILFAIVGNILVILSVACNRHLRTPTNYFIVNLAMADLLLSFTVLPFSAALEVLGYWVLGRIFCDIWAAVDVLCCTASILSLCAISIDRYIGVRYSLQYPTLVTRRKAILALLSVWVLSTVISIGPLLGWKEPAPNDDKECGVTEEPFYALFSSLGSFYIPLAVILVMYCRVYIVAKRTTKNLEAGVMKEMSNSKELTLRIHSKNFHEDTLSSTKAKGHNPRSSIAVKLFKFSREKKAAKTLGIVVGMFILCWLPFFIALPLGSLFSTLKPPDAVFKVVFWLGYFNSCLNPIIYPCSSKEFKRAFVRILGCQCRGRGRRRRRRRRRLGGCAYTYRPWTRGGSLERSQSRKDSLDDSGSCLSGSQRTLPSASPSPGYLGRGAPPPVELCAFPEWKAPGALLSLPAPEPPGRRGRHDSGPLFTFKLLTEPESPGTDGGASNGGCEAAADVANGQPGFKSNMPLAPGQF
Experimental: as §1, §2, §3

[3] = target: T3, α1d-AR (Homo sapiens, UniProt P25100); experiment: α1-Adrenergic Receptor Binding Assay, 125I-HEAT radio-ligand binding, transfected COS-7 cell membranes, α1d subtype
T3 construct: expressed in transfected cells; host or cells: COS-7 cells (African Green monkey kidney), membranes
T3 sequence (P25100 1-572): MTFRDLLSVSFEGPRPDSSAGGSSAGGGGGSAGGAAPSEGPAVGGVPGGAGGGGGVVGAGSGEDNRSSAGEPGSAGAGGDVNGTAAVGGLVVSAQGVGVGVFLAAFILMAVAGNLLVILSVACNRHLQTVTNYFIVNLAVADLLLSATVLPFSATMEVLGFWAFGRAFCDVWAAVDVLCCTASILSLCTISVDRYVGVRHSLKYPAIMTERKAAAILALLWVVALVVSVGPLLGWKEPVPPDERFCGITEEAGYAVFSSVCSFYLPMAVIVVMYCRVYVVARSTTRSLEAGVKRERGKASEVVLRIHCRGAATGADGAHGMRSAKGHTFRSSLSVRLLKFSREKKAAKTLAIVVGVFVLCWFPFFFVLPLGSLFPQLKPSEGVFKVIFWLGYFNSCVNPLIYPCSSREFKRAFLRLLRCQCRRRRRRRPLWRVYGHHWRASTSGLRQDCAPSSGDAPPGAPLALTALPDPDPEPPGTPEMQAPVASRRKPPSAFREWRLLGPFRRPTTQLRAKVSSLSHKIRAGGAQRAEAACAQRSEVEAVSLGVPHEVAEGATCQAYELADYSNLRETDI
Experimental: as §1, §2, §3

[4] = average value, read-out: Alpha 1 Ki α1a (1) Average Value
[5] = individual values, read-out: Alpha 1 Ki α1a (2) Individual Values
[6] = average value, read-out: Alpha 1 Ki α1b (1) Average Value
[7] = individual values, read-out: Alpha 1 Ki α1b (2) Individual Values
[8] = average value, read-out: Alpha 1 Ki α1d (1) Average Value
[9] = individual values, read-out: Alpha 1 Ki α1d (2) Individual Values

Compound | Ki [1, 4] [nM] | Ki [1, 5] | Ki [2, 6] [nM] | Ki [2, 7] | Ki [3, 8] [nM] | Ki [3, 9]
CC(C)Oc1ccccc1N1CCN(CC2CC(C(=O)N3CCC(C(=O)c4ccc(F)cc4)CC3)=NO2)CC1 (centres unmarked) [Compound 18, [4-(4-fluoro-benzoyl)-piperidin-1-yl]-{5-[4-(2-isopropoxy-phenyl)-piperazin-1-ylmethyl]-4,5-dihydro-isoxazol-3-yl}-methanone] | 7.9 | 9.9 nM and 5.9 nM | 423 | 423 nM | 21.5 | 22 nM and 21 nM
CC(C)Oc1ccccc1N1CCN(CC2CC(C(=O)N3CC(C)(C)c4cc(Br)ccc43)=NO2)CC1 (centres unmarked) [Compound 19, (5-bromo-3,3-dimethyl-2,3-dihydro-indol-1-yl)-{5-[4-(2-isopropoxy-phenyl)-piperazin-1-ylmethyl]-4,5-dihydro-isoxazol-3-yl}-methanone] | 13 | 13 nM | 280 | 302 nM and 258 nM | 0.6 | 0.4 nM and 0.8 nM
CC(C)Oc1ccccc1N1CCN(CC2CC(CN3CCc4ccc(NCc5ccccc5F)cc43)=NO2)CC1 (centres unmarked) [Compound 8, (2-fluoro-benzyl)-(1-{5-[4-(2-isopropoxy-phenyl)-piperazin-1-ylmethyl]-4,5-dihydro-isoxazol-3-ylmethyl}-2,3-dihydro-1H-indol-6-yl)-amine] | 6.9 | 6.9 nM | 304 | 304 nM | 35 | 35 nM
CC(C)Oc1ccccc1N1CCN(CC2CC(C(=O)N3CCC(C(=O)c4ccc(F)cc4)CC3)=NO2)CC1 (single isomer, unassigned) [Compound 40, [4-(4-fluoro-benzoyl)-piperidin-1-yl]-{(5S*)-5-[4-(2-isopropoxy-phenyl)-piperazin-1-ylmethyl]-4,5-dihydro-isoxazol-3-yl}-methanone] | 6.44 | 6.44 nM | 531 | 531 nM | 4.61 | 4.61 nM
CC(C)Oc1ccccc1N1CCN(CC2CC(C(=O)N3CCC(Oc4ccccn4)CC3)=NO2)CC1 (centres unmarked) [Compound 32, {5-[4-(2-isopropoxy-phenyl)-piperazin-1-ylmethyl]-4,5-dihydro-isoxazol-3-yl}-[4-(pyridin-2-yloxy)-piperidin-1-yl]-methanone] | 41.7 | 41.7 nM | 264 | 264 nM | 44.6 | 44.6 nM
CC(=O)N1CCc2ccc(NC(=O)C3=NOC(CN4CCN(c5ccccc5OC(C)C)CC4)C3)cc21 (centres unmarked) [Compound 24, 5-[4-(2-isopropoxy-phenyl)-piperazin-1-ylmethyl]-4,5-dihydro-isoxazole-3-carboxylic acid (1-acetyl-2,3-dihydro-1H-indol-6-yl)-amide] | 5.46 | 5.46 nM | 101 | 101 nM | 3.95 | 3.95 nM
CC(C)Oc1ccccc1N1CCN(CC2CC(C(=O)N3CCN(c4ccccc4OC(C)C)CC3)=NO2)CC1 (centres unmarked) [Compound 17, [4-(2-isopropoxy-phenyl)-piperazin-1-yl]-{5-[4-(2-isopropoxy-phenyl)-piperazin-1-ylmethyl]-4,5-dihydro-isoxazol-3-yl}-methanone] | 16.3 | 16.3 nM | 187 | 187 nM | 6.6 | 6.6 nM
CC(C)Oc1ccccc1N1CCN(CC2CC(C(=O)N3CC(C)(C)c4cc(Br)ccc43)=NO2)CC1 (single isomer, unassigned) [Compound 42, (5-bromo-3,3-dimethyl-2,3-dihydro-indol-1-yl)-{(5R*)-5-[4-(2-isopropoxy-phenyl)-piperazin-1-ylmethyl]-4,5-dihydro-isoxazol-3-yl}-methanone] | 5.87 | 5.87 nM | 289 | 289 nM | 0.44 | 0.44 nM

The next compounds have a lower Ki [1, 4] than those just listed; values first:

Ki [1, 4] [nM] | Ki [1, 5] | Ki [2, 6] [nM] | Ki [2, 7] | Ki [3, 8] [nM] | Ki [3, 9] | Compound
4.3 | 4.3 nM | 410 | 410 nM | 46 | 46 nM | CC(C)Oc1ccccc1N1CCN(CC2CC(CN3CCc4ccc(N)cc43)=NO2)CC1 (centres unmarked) [Compound 6, 1-{5-[4-(2-isopropoxy-phenyl)-piperazin-1-ylmethyl]-4,5-dihydro-isoxazol-3-ylmethyl}-2,3-dihydro-1H-indol-6-ylamine]
2.12 | 1.4 nM and 3.4 nM and 3.1 nM and 1.9 nM and 0.8 nM | 107 | 90 nM and 145 nM and 92 nM and 87.6 nM and 121 nM | 1.3 | – | CC(C)Oc1ccccc1N1CCN(CC2CC(C(=O)N3CCc4ccccc43)=NO2)CC1 (centres unmarked) [Compound 10, (2,3-dihydro-indol-1-yl)-{5-[4-(2-isopropoxy-phenyl)-piperazin-1-ylmethyl]-4,5-dihydro-isoxazol-3-yl}-methanone]
0.54 | 0.54 nM | 37 | 37 nM | 0.28 | 0.28 nM | CC(C)Oc1ccccc1N1CCN(CC2CC(C(=O)N3CCc4ccccc43)=NO2)CC1 (single isomer, unassigned) [Compound 37, (2,3-dihydro-indol-1-yl)-{(5R*)-5-[4-(2-isopropoxy-phenyl)-piperazin-1-ylmethyl]-4,5-dihydro-isoxazol-3-yl}-methanone]
3 | 3 nM | 691 | 691 nM | 27.2 | 27.2 nM | CC(C)Oc1ccccc1N1CCN(CC2CC(C(=O)N3CCOCC3)=NO2)CC1 (centres unmarked) [Compound 28, {5-[4-(2-isopropoxy-phenyl)-piperazin-1-ylmethyl]-4,5-dihydro-isoxazol-3-yl}-morpholin-4-yl-methanone]
3.65 | 1.6 nM and 5.7 nM | 212 | 183 nM and 242 nM | 9 | 11 nM and 7 nM | CC(C)Oc1ccccc1N1CCN(CC2CC(C(=O)N3CCCC3)=NO2)CC1 (centres unmarked) [Compound 35, {5-[4-(2-isopropoxy-phenyl)-piperazin-1-ylmethyl]-4,5-dihydro-isoxazol-3-yl}-pyrrolidin-1-yl-methanone]
